Measurements taken from patent US9446039B2, “Aminoheteroaryl compounds as MTH1 inhibitors” (CEMM—FORSCHUNGSZENTRUM FÜR MOLEKULARE MEDIZIN GMBH, priority 2012, dated 2016).

Key:
Type in all cases: binding
[1] = target: T1, SW480 colon carcinoma cells lysate proteins (Homo sapiens, UniProt P12429); conditions: PreyGene ANXA3
T1 sequence (P12429 1-323): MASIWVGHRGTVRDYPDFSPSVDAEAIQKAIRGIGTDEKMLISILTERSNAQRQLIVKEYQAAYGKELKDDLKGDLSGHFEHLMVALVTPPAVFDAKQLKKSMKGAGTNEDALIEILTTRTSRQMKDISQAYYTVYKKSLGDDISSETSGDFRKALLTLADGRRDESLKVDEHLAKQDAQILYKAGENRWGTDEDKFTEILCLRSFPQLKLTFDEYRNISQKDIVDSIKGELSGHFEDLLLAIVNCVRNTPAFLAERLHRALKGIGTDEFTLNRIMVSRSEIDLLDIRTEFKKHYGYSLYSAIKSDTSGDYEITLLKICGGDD

[2] = target: T2, SW480 colon carcinoma cells lysate proteins (Homo sapiens, UniProt Q9H910); conditions: PreyGene HN1L
T2 sequence (Q9H910 1-190): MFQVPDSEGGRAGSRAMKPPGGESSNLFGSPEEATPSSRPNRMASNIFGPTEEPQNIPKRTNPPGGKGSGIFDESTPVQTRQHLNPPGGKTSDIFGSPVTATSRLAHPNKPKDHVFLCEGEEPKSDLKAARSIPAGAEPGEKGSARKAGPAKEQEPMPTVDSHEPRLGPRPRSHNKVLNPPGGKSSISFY

[3] = target: T3, SW480 colon carcinoma cells lysate proteins (Homo sapiens, UniProt P11169); conditions: PreyGene SLC2A3
T3 sequence (P11169 1-496): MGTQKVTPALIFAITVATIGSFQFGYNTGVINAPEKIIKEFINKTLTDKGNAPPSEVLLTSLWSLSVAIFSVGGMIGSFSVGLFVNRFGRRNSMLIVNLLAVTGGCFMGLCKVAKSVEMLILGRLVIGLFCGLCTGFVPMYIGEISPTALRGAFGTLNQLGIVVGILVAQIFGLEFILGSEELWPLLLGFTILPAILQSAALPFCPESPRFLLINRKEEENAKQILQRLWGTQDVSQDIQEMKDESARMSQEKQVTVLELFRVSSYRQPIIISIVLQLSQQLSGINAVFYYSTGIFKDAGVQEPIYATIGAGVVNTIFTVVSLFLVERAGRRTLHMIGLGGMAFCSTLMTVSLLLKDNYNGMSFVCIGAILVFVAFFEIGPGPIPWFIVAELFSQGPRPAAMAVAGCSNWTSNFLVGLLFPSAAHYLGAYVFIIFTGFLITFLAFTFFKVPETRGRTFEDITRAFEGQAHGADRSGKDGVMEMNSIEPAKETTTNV

[4] = target: SW480 colon carcinoma cells lysate proteins (Homo sapiens, UniProt Q14974); conditions: PreyGene KPNB1
Chain of SW480 colon carcinoma cells lysate proteins (Homo sapiens, UniProt Q14974) (Q14974 whole entry): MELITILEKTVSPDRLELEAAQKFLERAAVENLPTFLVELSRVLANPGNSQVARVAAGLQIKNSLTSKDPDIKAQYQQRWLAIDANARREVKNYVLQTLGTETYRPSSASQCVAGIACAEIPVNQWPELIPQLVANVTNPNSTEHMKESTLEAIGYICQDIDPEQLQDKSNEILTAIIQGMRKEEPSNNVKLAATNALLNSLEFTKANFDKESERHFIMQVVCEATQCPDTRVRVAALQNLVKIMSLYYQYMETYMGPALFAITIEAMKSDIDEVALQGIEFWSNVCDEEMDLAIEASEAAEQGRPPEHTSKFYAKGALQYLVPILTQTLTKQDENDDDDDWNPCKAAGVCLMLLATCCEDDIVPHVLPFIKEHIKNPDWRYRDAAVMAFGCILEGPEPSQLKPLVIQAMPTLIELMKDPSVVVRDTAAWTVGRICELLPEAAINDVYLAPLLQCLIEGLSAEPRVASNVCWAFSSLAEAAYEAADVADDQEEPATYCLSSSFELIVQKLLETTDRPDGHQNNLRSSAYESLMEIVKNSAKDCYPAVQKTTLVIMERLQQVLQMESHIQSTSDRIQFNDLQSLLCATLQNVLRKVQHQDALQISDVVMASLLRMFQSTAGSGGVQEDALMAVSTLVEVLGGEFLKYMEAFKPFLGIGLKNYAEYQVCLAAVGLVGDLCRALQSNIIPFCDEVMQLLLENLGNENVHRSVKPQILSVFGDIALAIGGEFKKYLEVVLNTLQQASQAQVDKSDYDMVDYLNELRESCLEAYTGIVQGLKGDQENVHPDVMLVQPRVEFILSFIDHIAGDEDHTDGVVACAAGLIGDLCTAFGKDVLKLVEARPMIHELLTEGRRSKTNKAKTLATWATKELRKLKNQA

[5] = target: SW480 colon carcinoma cells lysate proteins (Homo sapiens, UniProt P10412); conditions: PreyGene HIST1H1E
Chain of SW480 colon carcinoma cells lysate proteins (Homo sapiens, UniProt P10412) (P10412 whole entry): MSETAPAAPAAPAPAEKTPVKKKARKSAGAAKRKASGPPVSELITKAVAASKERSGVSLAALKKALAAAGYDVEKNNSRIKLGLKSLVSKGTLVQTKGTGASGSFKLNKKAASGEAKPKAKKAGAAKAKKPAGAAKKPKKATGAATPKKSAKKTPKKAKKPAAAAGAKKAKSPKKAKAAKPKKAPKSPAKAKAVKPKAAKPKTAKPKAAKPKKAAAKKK

[6] = target: SW480 colon carcinoma cells lysate proteins (Homo sapiens, UniProt P07237); conditions: PreyGene P4HB
Chain of SW480 colon carcinoma cells lysate proteins (Homo sapiens, UniProt P07237) (P07237 18-508): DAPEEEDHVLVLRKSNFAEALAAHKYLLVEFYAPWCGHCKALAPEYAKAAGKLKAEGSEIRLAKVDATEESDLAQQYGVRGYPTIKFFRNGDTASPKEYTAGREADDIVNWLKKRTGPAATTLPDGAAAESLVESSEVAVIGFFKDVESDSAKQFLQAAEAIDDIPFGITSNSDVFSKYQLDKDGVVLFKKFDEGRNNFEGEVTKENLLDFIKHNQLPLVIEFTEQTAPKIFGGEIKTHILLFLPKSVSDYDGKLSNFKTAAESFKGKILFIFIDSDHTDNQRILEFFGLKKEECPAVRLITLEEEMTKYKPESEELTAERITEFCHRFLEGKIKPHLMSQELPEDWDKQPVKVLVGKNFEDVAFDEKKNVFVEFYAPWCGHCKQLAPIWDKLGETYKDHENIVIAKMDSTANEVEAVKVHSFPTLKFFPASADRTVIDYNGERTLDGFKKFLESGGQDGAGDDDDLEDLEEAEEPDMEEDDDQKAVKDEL

[7] = target: SW480 colon carcinoma cells lysate proteins (Homo sapiens, UniProt P15559); conditions: PreyGene NQO1
Chain of SW480 colon carcinoma cells lysate proteins (Homo sapiens, UniProt P15559) (P15559 whole entry): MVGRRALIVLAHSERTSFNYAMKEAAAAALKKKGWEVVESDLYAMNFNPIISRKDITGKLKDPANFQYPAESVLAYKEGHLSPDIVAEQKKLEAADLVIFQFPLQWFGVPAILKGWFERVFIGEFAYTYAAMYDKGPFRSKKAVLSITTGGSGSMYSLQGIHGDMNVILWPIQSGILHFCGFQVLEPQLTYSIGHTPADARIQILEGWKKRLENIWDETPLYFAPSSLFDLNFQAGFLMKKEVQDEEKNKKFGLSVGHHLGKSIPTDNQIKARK

[8] = target: T4, SW480 colon carcinoma cells lysate proteins (Homo sapiens, UniProt P14174); conditions: PreyGene MIF
T4 sequence (P14174 1-115): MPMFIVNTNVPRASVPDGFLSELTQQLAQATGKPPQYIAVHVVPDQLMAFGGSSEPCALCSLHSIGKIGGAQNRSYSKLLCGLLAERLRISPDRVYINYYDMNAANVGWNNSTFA

[9] = target: SW480 colon carcinoma cells lysate proteins (Homo sapiens, UniProt P99999); conditions: PreyGene CYCS
Chain of SW480 colon carcinoma cells lysate proteins (Homo sapiens, UniProt P99999) (P99999 whole entry): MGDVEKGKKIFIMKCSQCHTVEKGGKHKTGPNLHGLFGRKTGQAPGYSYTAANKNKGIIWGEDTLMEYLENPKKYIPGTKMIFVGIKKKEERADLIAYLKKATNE

[10] = target: SW480 colon carcinoma cells lysate proteins (Homo sapiens, UniProt Q99623); conditions: PreyGene PHB2; SW480 cells
Chain of SW480 colon carcinoma cells lysate proteins (Homo sapiens, UniProt Q99623) (Q99623 whole entry): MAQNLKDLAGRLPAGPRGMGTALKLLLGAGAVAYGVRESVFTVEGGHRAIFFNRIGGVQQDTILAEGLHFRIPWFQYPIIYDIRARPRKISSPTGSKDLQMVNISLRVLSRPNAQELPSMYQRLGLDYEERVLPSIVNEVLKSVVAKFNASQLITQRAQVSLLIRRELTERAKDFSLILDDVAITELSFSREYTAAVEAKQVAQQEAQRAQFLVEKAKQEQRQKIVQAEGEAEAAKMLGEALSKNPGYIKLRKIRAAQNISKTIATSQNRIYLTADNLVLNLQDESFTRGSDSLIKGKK

[11] = target: SW480 colon carcinoma cells lysate proteins (Homo sapiens, UniProt P07858); conditions: PreyGene CTSB

C[C@H](Oc1cc(-c2cnn(C3CCNCC3)c2)cnc1N)c1c(Cl)ccc(F)c1Cl [(5)-crizotinib]
AvgP [1]: 0.461 | SC.Exp. 1-1 [1]: 4 | SC.Exp. 1-2 [1]: 4 | SC.Exp. 2-1 [1]: 0 | SC.Exp. 2-2 [1]: 0 | Sum (SC.Exp.) [1]: 8 | AvgP [2]: 0.1898 | SC.Exp. 1-1 [2]: 0 | SC.Exp. 1-2 [2]: 2 | SC.Exp. 2-1 [2]: 0 | SC.Exp. 2-2 [2]: 0 | Sum (SC.Exp.) [2]: 2 | AvgP [3]: 0.1834 | SC.Exp. 1-1 [3]: 3 | SC.Exp. 1-2 [3]: 0 | SC.Exp. 2-1 [3]: 0 | SC.Exp. 2-2 [3]: 0 | Sum (SC.Exp.) [3]: 3 | AvgP [4]: 0.5773 | SC.Exp. 1-1 [4]: 7 | SC.Exp. 1-2 [4]: 6 | SC.Exp. 2-1 [4]: 1 | SC.Exp. 2-2 [4]: 0 | Sum (SC.Exp.) [4]: 14 | AvgP [5]: 0.2298 | SC.Exp. 1-1 [5]: 0 | SC.Exp. 1-2 [5]: 2 | SC.Exp. 2-1 [5]: 0 | SC.Exp. 2-2 [5]: 2 | Sum (SC.Exp.) [5]: 4 | AvgP [6]: 0.3981 | SC.Exp. 1-1 [6]: 3 | SC.Exp. 1-2 [6]: 4 | SC.Exp. 2-1 [6]: 0 | SC.Exp. 2-2 [6]: 0 | Sum (SC.Exp.) [6]: 7 | AvgP [7]: 0.3104 | SC.Exp. 1-1 [7]: 2 | SC.Exp. 1-2 [7]: 1 | SC.Exp. 2-1 [7]: 0 | SC.Exp. 2-2 [7]: 0 | Sum (SC.Exp.) [7]: 3 | AvgP [8]: 0.3362 | SC.Exp. 1-1 [8]: 0 | SC.Exp. 1-2 [8]: 1 | SC.Exp. 2-1 [8]: 2 | SC.Exp. 2-2 [8]: 2 | Sum (SC.Exp.) [8]: 5 | AvgP [9]: 0.391 | SC.Exp. 1-1 [9]: 2 | SC.Exp. 1-2 [9]: 3 | SC.Exp. 2-1 [9]: 0 | SC.Exp. 2-2 [9]: 0 | Sum (SC.Exp.) [9]: 5 | AvgP [10]: 0 | SC.Exp. 1-1 [10]: 9 | SC.Exp. 1-2 [10]: 8 | SC.Exp. 2-1 [10]: 3 | SC.Exp. 2-2 [10]: 5 | SC.Exp. Sum [10]: 25 | AvgP [11]: 0.1845 | SC.Exp. 1-1 [11]: 0 | SC.Exp. 1-2 [11]: 2 | SC.Exp. 2-1 [11]: 0 | SC.Exp. 2-2 [11]: 0 | Sum (SC.Exp.) [11]: 2
